This note sets out measurements from patent publication US20050026263A1, “Multi-functional antibodies” (THE REGENTS OF THE UNIVERSITY OF CALIFORNIA, priority 2003, published 2005).

“Also recorded” adds a separate entry of the source.

For one test, the system named is antibody 2D12.5. Briefly: competitive immunoassay (ELISA) of metal-DOTA complexes relative to Y-DOTA. As to conditions: for binding compared with the original Y^3+ complex / other rare earths: DOTA complexes, 37° C.; for relative binding of Y-DOTA molecules with different sidechain locations (FIG. 17): Y complexes. It is filed as binding, murine. The text has this: FIG. 13 is graphical display showing the relative binding of metal-DOTA complexes to antibody 2D 12.5. A representative set of competitive binding curves obtained from ELISA experiments described in Example 3 below. Error bars (representing the standard error of the mean) are shown, but are generally smaller than the data points.
To determine the metal selectivity of the antibody 2D12.5, a competitive immunoassays was used to measure the binding constants of multiple metal-DOTA complexes relative to Y^3+-DOTA.
We examined the monoclonal antibody 2D12.5, initially developed to bind specifically to Y-DOTA for targeted radiotherapy (see, e.g., Goodwin et al., Cancer Res. 54: 5937-5946 (1994)), in order to determine the scope of its activity. To assess the metal selectivity of antibody 2D12.5, a competitive immunoassay to measure the binding constants of various metal-DOTA complexes relative to the original Y^3+ complex was developed (FIG. 12). Briefly, 2D12.5 was incubated at 37° C. in the presence of immobilized Y-DOTA and a soluble metal-DOTA competitor. The metal-DOTA concentration was varied from μM to pM in order to determine the relative binding affinity of 2D12.5 for each metal chelate in comparison to Y-DOTA. Binding was measured by standard methods known to those of skill in the art. The DOTA analog used to evaluate binding was [S]-2-(p-nitrobenzyl)-DOTA, which is similar to the original antigen.
For orientation: An ELISA detects its analyte on a solid surface through an enzyme-linked reagent.

For the next test, the system named is 2D12.5. Kind of test: relative binding affinities of metal NBD/AABD complexes and DTPA to 2D12.5. Details: species or system murine. The procedure: FIG. 18 is a graphical display showing the relative binding affinities of the NBD complexes of various metal ions relative to Y-NBD.
Relative binding affinities of NBD complexes of various metals ions relative to Y-NBD were determined by methods known in the art and described herein and shown in FIG. 18.

The next test has as its system N85D_G54C 2D12.5 mutant. Briefly: permanent binding of metal-AABD and metal-NBD complexes, Western blot (Example 10). Particulars: metal-NBD complexes. The procedure:
The native antibody 2D12.5 binds all rare earth DOTA complexes with high affinity (Corneillie et al., J. Am. Chem. Soc. 125:3436-37, 2003) and other metals with affinities that are weaker. […] Therefore, this mutant was selected for the present example.
Metallation of Chelates with stable metal cations. Metals tested in this experiment included Y, La, Lu, Sr and Sc. Stock chelate concentrations were measured using a Co-57 metal binding assay (Meares et al., Anal. Biochem. 142:68-78, 1984). Stock metal solutions (approximately 0.2 M) were prepared by dissolving the appropriate gravimetrically measured rare earth chloride salt in 0.05 M HCl. As an example, YCl3 (2.5 equivalents) was added to 25 μL of NBD ([…]) dissolved in 0.1 M tetramethylammonium acetate, and the pH was adjusted to 5 by the addition of triethylamine. The metallation was allowed to proceed overnight at 50° C. Samples were promptly frozen at −70° C., and metallation efficiency was assessed using a competitive metal-binding assay with Co-57^3. Excess metal was scavenged with DTPA, which has very low affinity for the antibody (<<1%).
Metal-AABD and metal-NBD complexes were incubated with 2D12.5 Fab mutant N85D_G54C and samples denatured, reduced and separated by SDS-PAGE, as described for Y-90 in the previous examples. […]
On the technique in general: In western blotting, separated proteins are transferred to a membrane and probed.

In the case of `O=C(O)CN1CCN(CC(=O)O)CCN(CC(=O)O)[C@H](Cc2ccc([N+](=O)[O-])cc2)CN(CC(=O)O)CC1` (single isomer, unassigned) [(R)-isomer of 2-(4-nitrobenzyl)-DOTA], the “decrease of affinity as compared to the (S), Λ isomer” value in the test with antibody 2D12.5 (coordinated metal Y^3+ (FIG. 16)) was “less than an order of magnitude”.
For `O=C(O)CN(CCN(CC(=O)O)CC(=O)O)CCN(CC(=O)O)CC(=O)O` [DTPA], the “affinity for the antibody” value in the test on 2D12.5 is reported as under 1%.
On to `O=C([O-])CN1CCN(CC(=O)[O-])CCN(CC(=O)[O-])CCN(CC(=O)[O-])CC1.[Eu+3]` [Eu-DOTA], for which the “binding compared with the original Y^3+ complex / other rare earths” value with antibody 2D12.5 was “strongest binders”.
Still for that read-out and setting: then `O=C([O-])CN1CCN(CC(=O)[O-])CCN(CC(=O)O)CCN(CC(=O)[O-])CC1.[Gd+3]` [Gd-DOTA], with “bind more tightly; also recorded: strongest binders”.
For the molecule `O=C(O)CN1CCN(CC(=O)O)CCN(CC(=O)O)[C@@H](Cc2ccc([N+](=O)[O-])cc2)CN(CC(=O)O)CC1` [NBD], the “permanent bond with N85D_G54C 2D12.5, non-electrophilic negative control” value in the test with N85D_G54C 2D12.5 mutant is “negative”.
`O=C(O)CN1CCN(CC(=O)O)CCN(CC(=O)O)[C@@H](Cc2ccc([N+](=O)[O-])cc2)CN(CC(=O)O)CC1` [Y-NBD, (S)-2-(4-nitrobenzyl)-DOTA]: the “relative binding of Y-DOTA molecules with different sidechain locations (FIG. 17)” value in the test with antibody 2D12.5 is “clearly stronger”. Besides, in the test with antibody 2D12.5 (coordinated metal Y^3+), the “relative binding of Y-DOTA isomers (FIG. 16)” value is “preferred isomer for binding”. Moreover, the “binding rank of NBD complexes among the rare earths” value in the test on 2D12.5 is “one of the strongest binders”.
Turning to “(5-Amino-2-methoxy-phenyl)-carboxymethyl)-DOTA”, in the test with antibody 2D12.5, the “relative binding of Y-DOTA molecules with different sidechain locations (FIG. 17)” value is reported as “decrease in the binding affinity”.
